Here are results for one compound from article PMC9681850, “Structural basis of synthetic agonist activation of the nuclear receptor REV-ERB” (Nature Communications, 2022).

The target of one assay is T1, Alpha1A (Homo sapiens, UniProt P35348).
T1 construct: NIMH Psychoactive Drug Screening Program (assay performed there)
The assay is described as follows: PDSP radioligand binding assay. As to conditions: read-out: RLBA Ki. The source says: (§1) Receptor RLBA Ki Receptor activity
(§2) Suppl ementary Tabl e 1. Speci fi ci ty of STL1267. […]

In a further assay the target is T2, 5-HT1B (Homo sapiens, UniProt P28222).
T2 construct: NIMH Psychoactive Drug Screening Program (assay performed there)
The assay is described as follows: PDSP radioligand binding assay. As to conditions: read-out: RLBA Ki.
Description: as §1, §2

The next assay has as its target T3, 5-HT1E (Homo sapiens, UniProt P28566).
T3 construct: NIMH Psychoactive Drug Screening Program (assay performed there)
Description: PDSP radioligand binding assay. As to conditions: read-out: RLBA Ki.
Description: as §1, §2

The next assay deals with PBR (Rattus norvegicus, UniProt P16257). The assay is described as follows: PDSP radioligand binding assay. As to conditions: read-out: RLBA Ki.
Description: as §1, §2

The next assay deals with D5 (Homo sapiens, UniProt P21918). Description: PDSP radioligand binding assay. As to conditions: read-out: RLBA Ki.
Description: as §1, §2

The target of another assay is T4, Beta1 (Homo sapiens, UniProt P08588).
T4 construct: NIMH Psychoactive Drug Screening Program (assay performed there)
The assay is described as follows: PDSP radioligand binding assay. As to conditions: read-out: RLBA Ki.
Description: as §1, §2

A further assay has as its target T5, 5-HT6 (Homo sapiens, UniProt P50406).
T5 construct: NIMH Psychoactive Drug Screening Program (assay performed there)
The assay is described as follows: PDSP radioligand binding assay. As to conditions: read-out: RLBA Ki.
Description: as §1, §2

In another assay the target is BZP Rat Brain Site. The assay is described as follows: PDSP radioligand binding assay. As to conditions: read-out: RLBA Ki.
Description: as §1, §2

The target of a further assay is H2 (Homo sapiens, UniProt P25021). The assay is described as follows: PDSP radioligand binding assay. As to conditions: read-out: RLBA Ki.
Description: as §1, §2

For the next assay, the system named is BMAL1 in HepG2 cells. Description: expression of BMAL1 by qPCR. The class given is cell-based, human. The arrangement: key: Bmal1 expression normalized to Ppia. As to conditions: 5 μM, 24 h, single replicates (n = 4). The source says:
We next determined whether STL1267 can regulate characterized REV-ERB modulated genes in cell lines expressing REV-ERB naturally. Five micromolar doses of both drugs were used in cell-based experiments from this point on. REV-ERB is an established component of the core molecular clock repressing the expression of core clock gene Bmal1[6],[27] as well as others[28],[29]. […] In skeletal muscle, REV-ERB agonism increases the expression of a wide variety of genes important in mitochondrial function.
The human hepatocellular carcinoma cell line, HepG2 cells (ATCC HB-8065), were cultured in 10% FBS 1% L-Glu MEM at 37 °C in a humidified atmosphere of 5% CO2. Prior to RNA extraction cells were treated with either DMSO or REV-ERB agonist for 24 h. The C2C12 proliferating mouse myoblast cells (ATCC, CRL-1772) were cultured in 10% FBS DMEM at 37 °C in a humidified atmosphere of 5% CO2. Prior to RNA extraction cells were treated with either DMSO or REV-ERB agonist for 24 h. Prior to crystal violet cytotoxicity assay, cells were treated with either DMSO or REV-ERB agonist for 48 h.
Mouse tissue was homogenized using a bullet blender. DNA/protein was removed by phase separation using BCP/chloroform. The supernatant (RNA containing fraction) was collected, and RNA was precipitated using isopropanol. The RNA pellets were washed with 75% ethanol and resolubilized in RNAse free water. […]
(Real-time PCR tracks product formation cycle by cycle.)

For assay [1], the target named is serotonin transporter (SERT) (Homo sapiens, UniProt P31645). The assay is described as follows: PDSP radioligand binding assay. As to conditions: secondary full displacement curve, read-out: RLBA Ki.
Description: (§3) We assessed the specificity of STL1267 using both in house nuclear receptor Gal4-NR reporter assays and the NIMH Psychoactive Drug Screening Program (PDSP) assays. We assessed the specificity of STL1267 in the PDSP’s radioligand displacement assays, screening for binding to off-target GPCRs, ion channels, transporters, and other drug targets (Table S1). Of the 43 targets assessed in this panel, we observed no detectable binding in 41 of them. […] Additional assessment in serotonin transporter and kappa opioid receptor activity in a functional assay may be warranted to determine absolute specificity. […]
as §1, §2

For assay [2], the target named is kappa opioid receptor (KOR) (Homo sapiens, UniProt P41145). Description: PDSP radioligand binding assay. As to conditions: secondary full displacement curve, read-out: RLBA Ki.
Description: as §3, §1, §2

Assay [3] relates to 43 targets (GPCRs, ion channels, transporters, and other drug targets). Description: NIMH PDSP radioligand displacement panel. The class given is binding. As to conditions: of the 43 targets assessed.
Description: as §3, §1, §2
(Displacement assays read how much labelled ligand stays bound in the presence of the test substance.)

A further assay concerns the target FXR (Homo sapiens, UniProt Q96RI1). The assay is described as follows: Gal4-UAS reporter assay for nuclear receptor specificity. As to conditions: Gal4 DBD-NR, HEK293 cells, 10 µM. The class given is cell-based. The source says: (§4) We assessed the specificity of STL1267 using both in house nuclear receptor Gal4-NR reporter assays and the NIMH Psychoactive Drug Screening Program (PDSP) assays. We assessed the specificity of STL1267 in the PDSP’s radioligand displacement assays, screening for binding to off-target GPCRs, ion channels, transporters, and other drug targets (Table S1). Of the 43 targets assessed in this panel, we observed no detectable binding in 41 of them. […] Additional assessment in serotonin transporter and kappa opioid receptor activity in a functional assay may be warranted to determine absolute specificity.
(§5) Receptor RLBA Ki Receptor activity […]
(§6) HEK293 cells transfected with Gal4-UAS l uc i f eras e and […]
(In general: A reporter such as luciferase makes a cellular process visible.)

A further assay concerns the target GR (Homo sapiens, UniProt P04150). The description is as above. The class given is cell-based. As to conditions: Gal4 DBD-NR, HEK293 cells, 10 µM.
Description: as §4, §5, §6

Another assay addresses RXRα (Homo sapiens, UniProt P19793). The assay is described as above. The class given is cell-based. As to conditions: Gal4 DBD-NR, HEK293 cells, 10 µM; RXRa.
Description: as §4, §5, §6

SMILES strings stand for the structures. Values joined by “and” are separate entries in the source; they are usually repeats but may differ in a detail not shown here. Identical values can stand only once.

Chain of serotonin transporter (SERT) (P31645 whole entry, species assumed, the tested form may be a part): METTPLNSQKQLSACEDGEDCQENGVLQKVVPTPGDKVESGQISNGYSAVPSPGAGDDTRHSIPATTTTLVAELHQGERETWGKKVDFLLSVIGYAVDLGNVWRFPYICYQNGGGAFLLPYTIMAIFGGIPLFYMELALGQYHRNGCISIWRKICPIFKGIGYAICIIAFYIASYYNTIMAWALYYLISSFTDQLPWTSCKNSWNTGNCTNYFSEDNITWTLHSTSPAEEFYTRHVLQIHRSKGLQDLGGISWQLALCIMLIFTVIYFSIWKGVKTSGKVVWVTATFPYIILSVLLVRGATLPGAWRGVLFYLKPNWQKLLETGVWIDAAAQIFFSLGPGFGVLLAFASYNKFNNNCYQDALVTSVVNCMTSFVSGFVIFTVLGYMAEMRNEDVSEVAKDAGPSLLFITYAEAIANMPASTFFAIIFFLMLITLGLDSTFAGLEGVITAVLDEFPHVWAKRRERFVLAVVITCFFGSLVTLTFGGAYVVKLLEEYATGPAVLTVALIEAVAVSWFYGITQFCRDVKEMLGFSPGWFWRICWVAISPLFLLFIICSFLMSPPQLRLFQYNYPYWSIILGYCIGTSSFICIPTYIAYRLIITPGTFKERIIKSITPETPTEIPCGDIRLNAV
T2 sequence (P28222 whole entry, species assumed): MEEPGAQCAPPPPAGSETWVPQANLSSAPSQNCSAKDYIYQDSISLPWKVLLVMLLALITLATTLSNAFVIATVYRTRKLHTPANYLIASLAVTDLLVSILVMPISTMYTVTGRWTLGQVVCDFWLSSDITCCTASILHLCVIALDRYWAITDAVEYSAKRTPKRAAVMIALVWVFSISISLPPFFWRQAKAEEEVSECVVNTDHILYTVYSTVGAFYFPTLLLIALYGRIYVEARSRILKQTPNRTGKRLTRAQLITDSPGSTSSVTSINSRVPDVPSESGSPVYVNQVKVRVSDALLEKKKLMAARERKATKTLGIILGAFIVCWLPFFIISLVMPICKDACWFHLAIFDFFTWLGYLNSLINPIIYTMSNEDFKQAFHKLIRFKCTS
T1 sequence (P35348 whole entry): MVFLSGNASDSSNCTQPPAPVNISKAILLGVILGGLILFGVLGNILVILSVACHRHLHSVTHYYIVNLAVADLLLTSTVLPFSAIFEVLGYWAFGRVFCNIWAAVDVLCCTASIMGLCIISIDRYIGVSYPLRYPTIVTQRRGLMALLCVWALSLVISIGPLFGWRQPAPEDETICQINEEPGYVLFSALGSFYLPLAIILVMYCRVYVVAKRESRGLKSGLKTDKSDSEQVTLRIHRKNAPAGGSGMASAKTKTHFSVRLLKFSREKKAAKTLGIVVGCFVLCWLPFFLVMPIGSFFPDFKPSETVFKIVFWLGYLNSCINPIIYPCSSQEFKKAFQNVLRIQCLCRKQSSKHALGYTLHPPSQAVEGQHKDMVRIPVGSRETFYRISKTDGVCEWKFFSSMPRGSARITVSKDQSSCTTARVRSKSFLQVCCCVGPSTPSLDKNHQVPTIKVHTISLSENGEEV
Chain of kappa opioid receptor (KOR) (P41145 whole entry): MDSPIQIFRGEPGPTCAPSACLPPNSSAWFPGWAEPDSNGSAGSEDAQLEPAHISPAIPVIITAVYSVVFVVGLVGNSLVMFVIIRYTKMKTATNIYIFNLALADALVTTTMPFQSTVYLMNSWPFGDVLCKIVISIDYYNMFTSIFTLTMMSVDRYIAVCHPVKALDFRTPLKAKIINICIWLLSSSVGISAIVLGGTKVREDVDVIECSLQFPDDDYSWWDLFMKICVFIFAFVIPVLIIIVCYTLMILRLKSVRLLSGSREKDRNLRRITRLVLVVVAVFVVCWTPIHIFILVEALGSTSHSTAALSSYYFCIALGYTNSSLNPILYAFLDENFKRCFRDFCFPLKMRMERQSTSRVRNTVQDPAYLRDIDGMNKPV
Chain of D5 (P21918 whole entry): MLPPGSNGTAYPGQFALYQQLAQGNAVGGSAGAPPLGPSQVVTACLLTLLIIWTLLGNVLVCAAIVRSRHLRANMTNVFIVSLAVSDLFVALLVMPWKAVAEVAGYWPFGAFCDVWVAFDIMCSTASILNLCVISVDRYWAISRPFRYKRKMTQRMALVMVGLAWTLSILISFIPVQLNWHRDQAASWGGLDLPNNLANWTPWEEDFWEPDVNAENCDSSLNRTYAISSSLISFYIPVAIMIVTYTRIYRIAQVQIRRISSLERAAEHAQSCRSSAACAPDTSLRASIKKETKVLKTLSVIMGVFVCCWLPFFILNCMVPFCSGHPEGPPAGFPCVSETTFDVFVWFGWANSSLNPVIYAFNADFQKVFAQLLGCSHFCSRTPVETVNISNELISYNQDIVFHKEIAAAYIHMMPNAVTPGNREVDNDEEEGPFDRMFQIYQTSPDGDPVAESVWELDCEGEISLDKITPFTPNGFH
T4 sequence (P08588 whole entry): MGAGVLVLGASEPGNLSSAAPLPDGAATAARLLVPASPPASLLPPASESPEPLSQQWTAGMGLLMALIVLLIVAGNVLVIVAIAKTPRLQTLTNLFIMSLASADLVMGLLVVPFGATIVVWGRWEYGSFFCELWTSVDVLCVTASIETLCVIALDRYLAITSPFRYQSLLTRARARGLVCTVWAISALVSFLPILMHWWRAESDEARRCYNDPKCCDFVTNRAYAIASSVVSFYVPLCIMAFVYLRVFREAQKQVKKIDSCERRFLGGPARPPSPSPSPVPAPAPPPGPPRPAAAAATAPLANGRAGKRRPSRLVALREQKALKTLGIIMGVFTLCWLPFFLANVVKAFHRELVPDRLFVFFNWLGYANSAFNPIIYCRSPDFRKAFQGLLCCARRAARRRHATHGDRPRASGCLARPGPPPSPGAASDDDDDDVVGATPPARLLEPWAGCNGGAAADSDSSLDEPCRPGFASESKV
Chain of H2 (P25021 whole entry): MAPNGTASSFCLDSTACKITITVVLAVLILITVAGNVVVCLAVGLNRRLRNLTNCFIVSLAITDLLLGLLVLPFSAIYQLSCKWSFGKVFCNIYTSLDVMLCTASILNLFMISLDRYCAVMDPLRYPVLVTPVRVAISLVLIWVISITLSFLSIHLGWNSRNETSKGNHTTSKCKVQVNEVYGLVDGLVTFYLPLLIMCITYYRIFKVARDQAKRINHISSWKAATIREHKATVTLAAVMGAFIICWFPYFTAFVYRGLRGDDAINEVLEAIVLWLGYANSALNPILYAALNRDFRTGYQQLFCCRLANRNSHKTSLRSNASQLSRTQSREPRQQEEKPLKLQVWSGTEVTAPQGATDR
T5 sequence (P50406 whole entry, species assumed): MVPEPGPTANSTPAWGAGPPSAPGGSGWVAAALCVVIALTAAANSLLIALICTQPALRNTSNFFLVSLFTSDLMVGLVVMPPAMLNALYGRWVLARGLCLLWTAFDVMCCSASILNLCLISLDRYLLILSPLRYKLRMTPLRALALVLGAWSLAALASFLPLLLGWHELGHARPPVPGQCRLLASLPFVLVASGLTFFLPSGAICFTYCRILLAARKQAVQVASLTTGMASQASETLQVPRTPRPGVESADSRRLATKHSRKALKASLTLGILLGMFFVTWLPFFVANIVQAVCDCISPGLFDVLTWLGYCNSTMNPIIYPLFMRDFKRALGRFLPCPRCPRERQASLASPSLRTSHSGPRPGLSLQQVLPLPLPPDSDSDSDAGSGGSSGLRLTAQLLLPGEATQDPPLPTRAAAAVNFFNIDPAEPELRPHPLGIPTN
Chain of GR (P04150 524-777 limits assumed): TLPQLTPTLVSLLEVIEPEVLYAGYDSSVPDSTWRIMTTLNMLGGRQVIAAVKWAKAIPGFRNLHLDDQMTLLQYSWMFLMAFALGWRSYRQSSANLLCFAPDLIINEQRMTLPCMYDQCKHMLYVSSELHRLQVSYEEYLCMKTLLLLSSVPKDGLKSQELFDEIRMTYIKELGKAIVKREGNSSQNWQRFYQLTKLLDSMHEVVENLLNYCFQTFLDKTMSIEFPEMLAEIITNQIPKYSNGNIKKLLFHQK
Chain of RXRα (P19793 227-462 limits assumed): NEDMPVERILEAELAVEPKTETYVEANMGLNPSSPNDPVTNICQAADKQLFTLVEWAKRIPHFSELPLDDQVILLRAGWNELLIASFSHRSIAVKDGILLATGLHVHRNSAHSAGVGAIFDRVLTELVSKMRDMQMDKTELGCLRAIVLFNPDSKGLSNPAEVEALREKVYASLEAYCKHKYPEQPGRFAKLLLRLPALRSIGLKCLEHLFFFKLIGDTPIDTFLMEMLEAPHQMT
Chain of FXR (Q96RI1 262-486 limits assumed): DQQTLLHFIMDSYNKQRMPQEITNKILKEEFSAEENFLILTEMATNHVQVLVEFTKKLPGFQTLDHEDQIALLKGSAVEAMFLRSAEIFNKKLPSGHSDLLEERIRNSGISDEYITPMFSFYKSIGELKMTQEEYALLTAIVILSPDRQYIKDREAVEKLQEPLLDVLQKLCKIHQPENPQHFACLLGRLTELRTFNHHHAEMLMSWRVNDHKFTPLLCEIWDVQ
T3 sequence (P28566 whole entry, species assumed): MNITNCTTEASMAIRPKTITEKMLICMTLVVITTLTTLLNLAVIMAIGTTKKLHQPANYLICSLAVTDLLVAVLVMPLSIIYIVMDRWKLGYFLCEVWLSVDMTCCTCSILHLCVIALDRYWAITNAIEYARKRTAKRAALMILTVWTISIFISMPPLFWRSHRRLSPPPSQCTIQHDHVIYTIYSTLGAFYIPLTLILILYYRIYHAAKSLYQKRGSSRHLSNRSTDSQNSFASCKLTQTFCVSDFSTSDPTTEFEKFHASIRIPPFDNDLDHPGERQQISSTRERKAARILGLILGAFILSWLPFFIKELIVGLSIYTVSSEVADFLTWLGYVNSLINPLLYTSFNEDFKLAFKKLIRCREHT

Consider `Clc1nnc2ccc(Oc3ccccc3-c3ccccc3)nn12` [STL1267], for which the Ki at Alpha1A, on 5-HT1B, on 5-HT1E, on PBR, at D5 and at Beta1 was greater than 10 µM throughout. Further, the Ki at 5-HT6 was greater than 10 µM; at BZP Rat Brain Site it was greater than 10 µM; on H2 it was greater than 10 µM; in assay [1], 2 to 4 µM and 2.1 µM; in [2] it was 0.72 µM. The “Bmal1 (Fig. 2c) expression” value in the assay on BMAL1 in HepG2 cells is “attenuated the expression and 0.5800 and 0.6760 and 0.6148 and 0.7607”. The “number of targets with no detectable binding” value in [3] was found to be 41. In addition, the activity entry at FXR, at GR and on RXRα was “did not detect activity” throughout.

What is called Ki is a measure of affinity in units of concentration, obtained from inhibition or displacement.
